Data on five compounds can be found in US9107410B2, “Pesticidal compositions and processes related thereto” (Dow AgroSciences LLC, priority 2011, dated 2015).

Common to all, as to format: in vivo
In experiment [1] the test system is Beet Armyworm (BAW) (Spodoptera exigua). Briefly: Bioassay on beet armyworm (BAW), 128-well diet tray assay. As to conditions: 168 h, read-out: % Mortality BAW 50 μg/cm^2. On the procedure: (§1) Certain molecules disclosed in this document were tested against BAW and CEW using procedures described in the following examples. In the reporting of the results, the “BAW & CEW Rating Table” was used (See Table Section).
Bioassays on BAW (Spodoptera exigua)
Bioassays on BAW were conducted using a 128-well diet tray assay. One to five second instar BAW larvae were placed in each well (3 mL) of the diet tray that had been previously filled with 1 mL of artificial diet to which 50 μg/cm^2 of the test compound (dissolved in 50 μL of 90:10 acetone-water mixture) had been applied (to each of eight wells) and then allowed to dry. Trays were covered with a clear self-adhesive cover, and held at 25° C., 14:10 light-dark for five to seven days. Percent mortality was recorded for the larvae in each well; activity in the eight wells was then averaged. The results are indicated in the table entitled “Table: Bio Results” (See Table Section).

Experiment [2] concerns Corn Earworm (CEW) (Helicoverpa zea). Briefly: Bioassay on corn earworm (CEW), 128-well diet tray assay. As to conditions: 168 h, read-out: % Mortality CEW 50 μg/cm^2. On the procedure:
as §1
Bioassays on CEW (Helicoverpa zea)
Bioassays on CEW were conducted using a 128-well diet tray assay. One to five second instar CEW larvae were placed in each well (3 mL) of the diet tray that had been previously filled with 1 mL of artificial diet to which 50 μg/cm^2 of the test compound (dissolved in 50 μL of 90:10 acetone-water mixture) had been applied (to each of eight wells) and then allowed to dry. Trays were covered with a clear self-adhesive cover, and held at 25° C., 14:10 light-dark for five to seven days. Percent mortality was recorded for the larvae in each well; activity in the eight wells was then averaged. The results are indicated in the table entitled “Table: Bio Results” (See Table Section).

In experiment [3] the test system is Green Peach Aphid (GPA) (Myzus persicae). Description: Bioassay on green peach aphid (GPA), foliar spray on cabbage seedlings. Particulars: 72 h, read-out: % Mortality GPA 200 ppm. On the procedure:
Certain molecules disclosed in this document were tested against GPA using procedures described in the following example. In the reporting of the results, the “GPA Rating Table” was used (See Table Section).
Cabbage seedlings grown in 3-inch pots, with 2-3 small (3-5 cm) true leaves, were used as test substrate. The seedlings were infested with 20-50 GPA (wingless adult and nymph stages) one day prior to chemical application. Four pots with individual seedlings were used for each treatment. Test compounds (2 mg) were dissolved in 2 mL of acetone/methanol (1:1) solvent, forming stock solutions of 1000 ppm test compound. The stock solutions were diluted 5× with 0.025% Tween 20 in H2O to obtain the solution at 200 ppm test compound. A hand-held aspirator-type sprayer was used for spraying a solution to both sides of […] leaves until runoff. Reference plants (solvent check) were sprayed with the diluent only containing 20% by volume of acetone/methanol (1:1) solvent. Treated plants were held in a holding room for three days at approximately 25° C. and ambient relative humidity (RH) prior to grading. Evaluation was conducted by counting the number of live aphids per plant under a microscope. Percent Control was measured by using Abbott's correction formula (W. S. Abbott, “A Method of Computing the Effectiveness of an Insecticide” J. Econ. Entomol. 18 (1925), pp. 265-267) as follows. Corrected % Control=100*(X−Y)/X • where • X=No. of live aphids on solvent check plants and • Y=No. of live aphids on treated plants

The mark [4] stands for this setting: 50 μg/cm^2 on artificial diet, second instar larvae, 25° C., five to seven days, average of eight wells.
The mark [5] stands for this setting: 200 ppm foliar spray on cabbage seedlings, graded after three days, Abbott corrected % control.

Read-outs that look alike come from different tables or passages of the source.

For the compound `O=C(NC1CC1c1ccc(-c2ncn(-c3ccc(OC(F)(F)F)cc3)n2)cc1)Oc1c(Cl)cccc1Cl` (stereo not drawn) [Compound 28, 2,6-Dichlorophenyl 2-(4-(1-(4-(trifluoromethoxy)phenyl)-1H-1,2,4-triazol-3-yl)phenyl)-cyclopropylcarbamate], the mortality at 50 µg/cm2 in experiment [1] and in experiment [2] was 0% each time. Moreover, in experiment [3] (foliar), the mortality at 200 ppm is 0 to 80%.

As to `CC(C)c1ccccc1OC(=O)NC1CC1c1ccc(-c2ncn(-c3ccc(OC(F)(F)F)cc3)n2)cc1` (stereo not drawn) [Compound 29, 2-Isopropylphenyl 2-(4-(1-(4-(trifluoromethoxy)phenyl)-1H-1,2,4-triazol-3-yl)phenyl)-cyclopropylcarbamate], the mortality at 50 µg/cm2 in experiment [1] and in experiment [2] was 50 to 100% in each case. Further, the mortality at 200 ppm in experiment [3] (foliar) came to 0%.

Turning to `Cc1cc(C)c(NC(=O)NC2CC2c2ccc(-c3ncn(-c4ccc(OC(F)(F)F)cc4)n3)cc2)c(C)c1` (stereo not drawn) [Compound 30, 1-Mesityl-3-(2-(4-(1-(4-(trifluoromethoxy)phenyl)-1H-1,2,4-triazol-3-yl)phenyl)-cyclopropyl)urea], the mortality at 50 µg/cm2 in experiment [1] (setting [4]) and in experiment [2] (setting [4]) was 0% in each case. Moreover, in experiment [3] (setting [5]), the mortality at 200 ppm lay in the range of 0 to 80%.

Take `O=C(Nc1c(Cl)cccc1Cl)NC1CC1c1ccc(-c2ncn(-c3ccc(OC(F)(F)F)cc3)n2)cc1` (stereo not drawn) [Compound 31, 1-(2,6-Dichlorophenyl)-3-(2-(4-(1-(4-(trifluoromethoxy)phenyl)-1H-1,2,4-triazol-3-yl)phenyl)cyclopropyl)urea]: the mortality at 50 µg/cm2 in experiment [1] (setting [4]) and in experiment [2] (setting [4]) was 0% each time. In addition, the mortality at 200 ppm in experiment [3] (setting [5]) came out at 0%.

For `O=C(NC1CC1c1ccc(-c2ncn(-c3ccc(OC(F)(F)F)cc3)n2)cc1)NC1CC1c1ccc(-c2ncn(-c3ccc(OC(F)(F)F)cc3)n2)cc1` (stereo not drawn) [Compound 32, 1,3-bis(2-(4-(1-(4-(trifluoromethoxy)phenyl)-1H-1,2,4-triazol-3-yl)phenyl)cyclopropyl)urea], the mortality at 50 µg/cm2 in experiment [1] (setting [4]) was 0%; in experiment [2] (setting [4]), 50 to 100%. The mortality at 200 ppm in experiment [3] (setting [5]) was 0 to 80%.
